In US11578062B2, “Solid forms of (R)-1(2,2-difluorobenzo[d][1,3]dioxol-5-yl)-N-(1-(2,3-dihydroxypropyl)-6-fluoro-2-(1-hydroxy-2-methylpropan-2-yl)-1H-indol-5-yl)cyclopropanecarboxamide” (Vertex Pharmaceuticals Incorporated, priority 2010, dated 2023) one finds BinnedMaxEfficacy data, which are given here for 1 compound.

The assay has as its target T1, ΔF508-CFTR (Homo sapiens, UniProt P13569, DEL508-508).
T1 construct: expressed in transfected cells
As to the kind of experiment: Membrane potential optical assay for ΔF508-CFTR correction (FRET voltage-sensor dyes, VIPR). In kind it is cell-based. Conditions: PercentActivity; NIH3T3 mouse fibroblasts stably expressing ΔF508-CFTR; procedures described above. The text has this:
Assays for Detecting and Measuring ΔF508-CFTR Correction Properties of Compounds
Membrane potential optical methods for assaying ΔF508-CFTR modulation properties of compounds
The optical membrane potential assay utilized voltage-sensitive FRET sensors described by Gonzalez and Tsien (See, Gonzalez, J. E. and R. Y. Tsien (1995) “Voltage sensing by fluorescence resonance energy transfer in single cells” Biophys J 69(4): 1272-80, and Gonzalez, J. E. and R. Y. Tsien (1997) “Improved indicators of cell membrane potential that use fluorescence resonance energy transfer” Chem Biol 4(4): 269-77) in combination with instrumentation for measuring fluorescence changes such as the Voltage/Ion Probe Reader (VIPR) (See, Gonzalez, J. E., K. Oades, et al. (1999) “Cell-based assays and instrumentation for screening ion-channel targets” Drug Discov Today 4(9): 431-439).
These voltage sensitive assays are based on the change in fluorescence resonant energy transfer (FRET) between the membrane-soluble, voltage-sensitive dye, DiSBAC2(3), and a fluorescent phospholipid, CC2-DMPE, which is attached to the outer leaflet of the plasma membrane and acts as a FRET donor. […] The changes in fluorescence emission were monitored using VIPR™ II, which is an integrated liquid handler and fluorescent detector designed to conduct cell-based screens in 96- or 384-well microtiter plates. […]

Structures are written as SMILES.

T1 sequence (P13569 with tags, fused parts or gaps DEL508-508): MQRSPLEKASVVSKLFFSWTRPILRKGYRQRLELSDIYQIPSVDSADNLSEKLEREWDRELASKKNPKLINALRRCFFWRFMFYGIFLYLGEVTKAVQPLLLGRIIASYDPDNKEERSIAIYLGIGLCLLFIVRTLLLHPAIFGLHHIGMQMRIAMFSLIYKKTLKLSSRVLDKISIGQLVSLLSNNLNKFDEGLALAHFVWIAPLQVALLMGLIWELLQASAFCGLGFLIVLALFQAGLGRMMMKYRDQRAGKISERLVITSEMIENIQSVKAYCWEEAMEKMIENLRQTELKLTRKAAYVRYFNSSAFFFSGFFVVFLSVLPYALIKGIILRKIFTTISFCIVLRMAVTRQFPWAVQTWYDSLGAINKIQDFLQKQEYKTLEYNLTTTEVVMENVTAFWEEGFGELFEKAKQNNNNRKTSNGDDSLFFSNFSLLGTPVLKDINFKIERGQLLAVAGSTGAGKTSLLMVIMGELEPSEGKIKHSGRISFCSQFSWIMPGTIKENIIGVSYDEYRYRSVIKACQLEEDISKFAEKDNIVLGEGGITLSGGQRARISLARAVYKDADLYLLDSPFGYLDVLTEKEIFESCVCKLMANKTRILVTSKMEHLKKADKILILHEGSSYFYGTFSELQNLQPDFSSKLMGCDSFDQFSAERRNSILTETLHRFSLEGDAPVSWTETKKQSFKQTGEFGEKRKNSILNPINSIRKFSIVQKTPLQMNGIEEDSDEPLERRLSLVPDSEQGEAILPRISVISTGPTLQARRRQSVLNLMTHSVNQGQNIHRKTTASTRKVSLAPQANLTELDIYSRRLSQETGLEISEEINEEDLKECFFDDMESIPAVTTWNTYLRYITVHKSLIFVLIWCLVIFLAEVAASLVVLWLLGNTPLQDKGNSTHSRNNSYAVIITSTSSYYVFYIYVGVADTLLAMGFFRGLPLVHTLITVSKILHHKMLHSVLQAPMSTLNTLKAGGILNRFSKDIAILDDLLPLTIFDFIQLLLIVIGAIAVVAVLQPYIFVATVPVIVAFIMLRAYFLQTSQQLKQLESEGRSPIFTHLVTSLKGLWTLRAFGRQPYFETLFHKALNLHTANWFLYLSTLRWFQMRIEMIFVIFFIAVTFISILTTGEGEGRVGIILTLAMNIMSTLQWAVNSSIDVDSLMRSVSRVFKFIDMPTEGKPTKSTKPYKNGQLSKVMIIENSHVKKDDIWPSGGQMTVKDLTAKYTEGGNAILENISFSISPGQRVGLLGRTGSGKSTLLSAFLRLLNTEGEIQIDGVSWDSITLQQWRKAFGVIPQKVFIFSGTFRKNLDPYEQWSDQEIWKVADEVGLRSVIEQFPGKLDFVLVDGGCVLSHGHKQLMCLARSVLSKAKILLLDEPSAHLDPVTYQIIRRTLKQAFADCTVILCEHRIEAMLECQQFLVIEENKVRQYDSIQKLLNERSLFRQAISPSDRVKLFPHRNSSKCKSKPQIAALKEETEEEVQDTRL

As for `CC(C)(CO)c1cc2cc(NC(=O)C3(c4ccc5c(c4)OC(F)(F)O5)CC3)c(F)cc2n1C[C@@H](O)CO` [Compound 1, (R)-1-(2,2-difluorobenzo[d][1,3]dioxol-5-yl)-N-(1-(2,3-dihydroxypropyl)-6-fluoro-2-(1-hydroxy-2-methylpropan-2-yl)-1H-indol-5-yl)cyclopropanecarboxamide], the BinnedMaxEfficacy result is “+++ (PercentActivity Bins: + <= 25.0 < ++ <= 100.0 < +++)”.
